Values of other authors as cited in patent US20190350829A1, “AN ANTIMICROBIAL COMPOSITION” (Conopco, Inc., d/b/a UNILEVER, priority 2016, published 2019).
Where two headings read alike, the source gives them in different places.

pKa: 4.89
pKa (listed as methyl caprylic acid): 4.93
Structure (SMILES): CCCCC(C)CCC(=O)O (centres unmarked) [4-methyl octanoic acid]
